Reference: patent US12195427B2, “MASP-2 inhibitors and methods of use” (priority 2018, dated 2025)

Assays:
MASP-2 CCP2-SP = MASP-2 CCP2-SP (Homo sapiens (Human), UniProt O00187); test: MASP-2 co-crystallization, X-ray crystallography and structure analysis (H-bonds, van der Waals contacts); parameters: van der Waals contact distance, MASP-2 HIS 483 atom CD2 / van der Waals contact distance, MASP-2 HIS 483 atom NE2 / van der Waals contact distance, SER 654 C to compound atom / van der Waals contact distance, SER 654 O to compound atom / van der Waals contact distance, TRP 655 C to compound atom / van der Waals contact distance, MASP-2 GLY 528 atom CA / van der Waals contact distance TRP 655 atom CZ3 / van der Waals contact distance TRP 655 atom N / van der Waals contact distance TRP 655 atom CE3 / van der Waals contact distance GLY 656 atom C / van der Waals contact distance GLY 656 atom CA / van der Waals contact distance GLY 656 atom O / van der Waals contact distance, MASP-2 TYR 607 atom CD1 / van der Waals contact distance, MASP-2 PRO 606 atom O / d(C3,CA1) / d(CA1,N1)2 / d(H4,O1) / d(H4,O2) / d(O1,O2) / d(CA1,O2) / d(CA6,O1) / d(CA6,O2) / d(CA1,C5) / d(O2,H3) / d(N2,C2) / d(CA5,N2) / d(N2,C4) / d(N2,C6) / d(N2,CA3) / d(N2,O3) / d(O4,H2): unit not given beside the values;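 on Ligand-pharmacophore element distance, pharmacophore element C2: distance from averaged pharmacophore element to bound ligand; missing value means element absent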;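 on Ligand-pharmacophore element distance, pharmacophore element C3: distance from averaged pharmacophore element to bound ligand; missing value means element absent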;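 on Ligand-pharmacophore element distance, pharmacophore element C4: distance from averaged pharmacophore element to bound ligand; missing value means element absent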;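 on Ligand-pharmacophore element distance, pharmacophore element C5: distance from averaged pharmacophore element to bound ligand; missing value means element absent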
MASP-2 CCP2-SP, sequence (O00187 445-686): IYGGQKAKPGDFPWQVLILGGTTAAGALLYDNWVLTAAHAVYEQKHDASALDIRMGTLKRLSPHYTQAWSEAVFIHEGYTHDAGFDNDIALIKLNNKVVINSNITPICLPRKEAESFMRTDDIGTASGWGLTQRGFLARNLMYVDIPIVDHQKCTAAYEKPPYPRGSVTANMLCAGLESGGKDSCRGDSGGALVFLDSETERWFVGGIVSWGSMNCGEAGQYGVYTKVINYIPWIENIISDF
MASP-2 CCP2-SP, sequence (O00187 364-432 partner): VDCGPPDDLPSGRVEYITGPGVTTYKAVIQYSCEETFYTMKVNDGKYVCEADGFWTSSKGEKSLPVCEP
Procedure, shortened: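 E. coli-expressed CCP2-SP (±6His); apo crystals soaked 1–2× in inhibitor-containing crystallization solution; optional 20% glycerol cryoprotection, LN2 flash-cool; synchrotron data at 1.0 wavelength; MR using 1Q3X portions, partial refinement; single pose analysed when several seen.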

Lectin Pathway = Lectin Pathway Activation Assay in Human Serum (mannan-coated ELISA, C3c detection); assay type: biochemical; conditions: 1% human serum
Protocol: Microtiter ELISA plate was coated with mannan from Saccharomyces cerevisiae (Sigma-Aldrich, M7504) for overnight at 4° C. in coating buffer [15 mM Na2CO3, 35 mM NaHCO3].

[1] = Table A5-1 pharmacophore: distance between elements, S2/S1 region
[2] = Table A5-2 pharmacophore distance, S3/S4 region
[3] = Table A7-1, between pharmacophore elements of the bound compound

Cc1nc(N)ccc1CNC(=O)[C@H](C)NC(=O)[C@H]1C[C@H](Cc2ccccc2)CN1 [compound 1304, (2R,4S)—N—((S)-1-(((6-Amino-2-methylpyridin-3-yl)methyl)amino)-1-oxopropan-2-yl)-4-benzylpyrrolidine-2-carboxamide]
H-bond distance to MASP-2 ASP 627 atom OD2 (MASP-2 CCP2-SP; Table A1 (H-Bonds), ASP 627 OD2): 3.17
H-bond distance to MASP-2 GLY 656 atom N (MASP-2 CCP2-SP; Table A1 (H-Bonds), GLY 656 N): 3.2
H-bond distance to MASP-2 GLY 656 atom O (MASP-2 CCP2-SP; Table A1 (H-Bonds), GLY 656 O): 2.81
H-bond distance to MASP-2 SER 628 atom O (MASP-2 CCP2-SP; Table A1 (H-Bonds), SER 628 O): 3.18
H-bond distance to MASP-2 SER 654 atom O (MASP-2 CCP2-SP; Table A1 (H-Bonds), SER 654 O): 2.97
H-bond distance to MASP-2 SER 657 atom O (MASP-2 CCP2-SP; Table A1 (H-Bonds), SER 657 O): 2.96
van der Waals contact distance, MASP-2 HIS 483 atom CD2 (MASP-2 CCP2-SP; Table A2-1): 3.71
van der Waals contact distance, MASP-2 HIS 483 atom NE2 (MASP-2 CCP2-SP; Table A2-1): 3.65
van der Waals contact distance, MASP-2 GLY 528 atom CA (MASP-2 CCP2-SP; Table A2-2): 3.79
van der Waals contact distance, MASP-2 PHE 529 atom CD2 (MASP-2 CCP2-SP; Table A2-3): 3.79
van der Waals contact distance, MASP-2 PHE 529 atom CE2 (MASP-2 CCP2-SP; Table A2-3): 3.84
van der Waals contact distance, MASP-2 TYR 607 atom CD1 (MASP-2 CCP2-SP; Table A2-4): 3.78
van der Waals contact distance, MASP-2 amino acid atom to compound atom (MASP-2 CCP2-SP; Table A2-7: SER 628 (CB, O, OG)): 3.65
van der Waals contact distance, VAL 653 CG1 to compound atom (MASP-2 CCP2-SP; Table A2-11): 3.27
van der Waals contact distance, TRP 655 CA to compound atom (MASP-2 CCP2-SP; Table A2-12): 3.42
van der Waals contact distance TRP 655 atom CE3 (MASP-2 CCP2-SP; Table A2-13, MASP-2 TRP 655 CE3, compound atom in line below): 3.78
van der Waals contact distance TRP 655 atom CZ3 (MASP-2 CCP2-SP; Table A2-13, MASP-2 TRP 655 CZ3): 3.68
van der Waals contact distance, MASP-2 amino acid atom to compound atom (MASP-2 CCP2-SP; Table A2 section before Table A2-8): 3.81
Ligand-pharmacophore element distance, pharmacophore element C2 (MASP-2 CCP2-SP; Table A4-1, element C2): 0
Ligand-pharmacophore element distance, pharmacophore element C3 (MASP-2 CCP2-SP; Table A4-1, element C3): 0.09
Ligand-pharmacophore element distance, pharmacophore element C4 (MASP-2 CCP2-SP; Table A4-1, element C4): 0
Ligand-pharmacophore element distance, pharmacophore element C5 (MASP-2 CCP2-SP; Table A4-1, element C5): 0
Ligand-pharmacophore element distance, pharmacophore element C6 (MASP-2 CCP2-SP; Table A4-1, element C6): 0
Ligand-pharmacophore element distance, pharmacophore element C7 (MASP-2 CCP2-SP; Table A4-1, element C7): 0
Ligand-pharmacophore element distance, pharmacophore element CA1 (MASP-2 CCP2-SP; Table A4-1, element CA1): 0.56
Ligand-pharmacophore element distance, pharmacophore element CA2 (MASP-2 CCP2-SP; Table A4-1, element CA2): 0.23
Ligand-pharmacophore element distance, pharmacophore element CA3 (MASP-2 CCP2-SP; Table A4-1, element CA3): 0
Ligand-pharmacophore element distance, pharmacophore element CA4 (MASP-2 CCP2-SP; Table A4-1, element CA4): 0
Ligand-pharmacophore element distance, pharmacophore element CA5 (MASP-2 CCP2-SP; Table A4-1, element CA5): 0
Ligand-pharmacophore element distance, pharmacophore element CA6 (MASP-2 CCP2-SP; Table A4-1, element CA6): 0
d(C3,CA1) (MASP-2 CCP2-SP; [1]): 2.84
d(CA1,N1)2 (MASP-2 CCP2-SP; [1]): 1.38
d(CA1,O1) (MASP-2 CCP2-SP; [1]): 4.39
d(CA1,O2) (MASP-2 CCP2-SP; [1]): 3.89
d(H4,O1) (MASP-2 CCP2-SP; [1]): 4.40
d(H4,O2) (MASP-2 CCP2-SP; [1]): 3.85
d(O1,O2) (MASP-2 CCP2-SP; [1]): 3.37
d(N2,CA2) (MASP-2 CCP2-SP; [2]): 5.96
d(O2,H3) (MASP-2 CCP2-SP; [2]): 4.37
d(O2,N2) (MASP-2 CCP2-SP; [2]): 2.62
a(C3, CA1, O1) (MASP-2 CCP2-SP; Table A6-1 pharmacophore angle): 149.82
a(CA1, O1, O2) (MASP-2 CCP2-SP; Table A6-1 pharmacophore angle): 105.87
a(O1, O2, H4) (MASP-2 CCP2-SP; Table A6-1 pharmacophore angle): 132.43
a(N1, CA1, O1) b) (MASP-2 CCP2-SP; Table A6-1 pharmacophore angle, Methyl-amino-pyridine compounds): 173.92
a(O1, O2, H3) (MASP-2 CCP2-SP; Table A6-2 pharmacophore angle): 147.16
a(O1, O2, N2) (MASP-2 CCP2-SP; Table A6-2 pharmacophore angle): 139.74
a(O2, N2, CA2) (MASP-2 CCP2-SP; Table A6-2 pharmacophore angle): 156.83
Pharmacophore torsion angle a(C3, CA1, O1, H4) (MASP-2 CCP2-SP; [3]): 24.93
Pharmacophore torsion angle a(H4, O1, O2, H3) (MASP-2 CCP2-SP; [3]): 49.79
Pharmacophore torsion angle a(H4, O1, O2, N2) (MASP-2 CCP2-SP; [3]): 138.09
Pharmacophore torsion angle a(N1, CA1, O1, H4) (MASP-2 CCP2-SP; [3]): 5.90
Pharmacophore torsion angle a(O1, H4, O2, CA1) (MASP-2 CCP2-SP; [3]): −84.58
Pharmacophore torsion angle a(O1, O2, N2, CA2) (MASP-2 CCP2-SP; Table A7-2, between pharmacophore elements of the bound compound): 125.90
IC50 (Lectin Pathway): 50 to 500 nM
